Experiment in all cases: NCI anticancer screen, dose series, 48 h
Experiment [1] has as its system K-562 leukemia.
Experiment [2] relates to M14 melanoma.
Experiment [3] deals with IGROV1 ovarian.
Experiment [4] has as its system TK-10 renal.
Experiment [5] deals with NCI/ADR-RES ovarian.
Experiment [6] concerns HOP-62 NSCLC.
Experiment [7] relates to SNB-19 CNS.
In experiment [8] the test system is KM12 colon.
Experiment [9] deals with UACC-62 melanoma.
Experiment [10] has as its system RXF 393 renal.
Experiment [11] has as its system UACC-257 melanoma.
The test system of experiment [12] is T-47D breast.
The test system of experiment [13] is OVCAR-4 ovarian.
The subject of experiment [14] is SK-MEL-28 melanoma.
Experiment [15] has as its system HOP-92 NSCLC.
The subject of experiment [16] is U251 CNS.

We go through seven compounds from PubChem BioAssay (NCI).

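Growth conditions: 96-well plates. Treatment: test compound, 48 hours, 5 concentrations. Analysis: linear interpolation between bracketing concentrations; unreached endpoints set to highest concentration. GI50 = concentration required for 50% inhibition of growth. TGI: total growth inhibition.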

`Nc1nc(N)c2nc(CNc3ccc(C(=O)NC(CCCCNC(=O)c4ccccc4C(=O)O)C(=O)O)cc3)cnc2n1` (stereo unspecified): the TGI in [1], in experiment [2], in experiment [3], in experiment [4], in [5] and in experiment [6] was greater than 100 µM throughout. The TGI in experiment [7], in experiment [8], in experiment [9], in experiment [10], in experiment [11] and in [12] was greater than 100 µM each time. Also, the TGI in [13], in experiment [14], in experiment [15] and in experiment [16] was greater than 100 µM each time. The GI50 in [6] was 0.0305 µM; in experiment [8] it was 0.00485 µM; in experiment [15] it was greater than 100 µM; in [16] it was 0.0385 µM.

Consider `O=c1oc2ccc([N+](=O)[O-])cc2c(Nc2ccc3c(c2)S(=O)(=O)c2ccccc2O3)c1[N+](=O)[O-]`, for which the TGI in experiment [1], in experiment [2], in experiment [3], in experiment [4], in [5] and in experiment [6] was greater than 100 µM in each case. The TGI in [7], in experiment [8], in experiment [9], in experiment [10], in experiment [11] and in experiment [12] was greater than 100 µM in each case. In addition, the TGI in experiment [13], in experiment [14], in [15] and in experiment [16] was greater than 100 µM each time.

With `CCOC(=O)/C(C#N)=C/c1ccc2c(c1)CC1(C2)Cc2cc(CC)c(C(C)O)cc2C1` (stereo unspecified), the TGI in [1] was greater than 52.5 µM; in experiment [2], 16.8 µM; in experiment [3] it was 57 µM; in experiment [4], 84.2 µM; in experiment [5], 55.9 µM; in experiment [6], 36 µM. The TGI in experiment [7] is 43.8 µM; in [8], 38.8 µM; in [9] it was 29.5 µM; in [10], 38.5 µM; in [11], 45.6 µM; in [12], greater than 100 µM. Also, the TGI in experiment [13] was 49 µM; in experiment [14] it was 38.9 µM; in [15], 47.9 µM; in experiment [16], 20.3 µM.

Turning to `COc1ccc(CCNCCCC2c3ccccc3-c3ccccc32)cc1OC`, the TGI in [1] came to 49.2 µM; in experiment [2], 11.8 µM; in experiment [3] it was 26.8 µM; in [4] it was 27.7 µM; in [5], 33.2 µM; in experiment [6] it was 30 µM. Besides, the TGI was 31.8 µM in experiment [7]; 30.4 µM in experiment [8]; 30.3 µM in experiment [9]; 26.1 µM in experiment [10]; 28.1 µM in experiment [11]; 34.3 µM in experiment [12]. In addition, the TGI was determined as 30.5 µM in experiment [13], 23.1 µM in experiment [14], 18.2 µM in experiment [15] and 26.2 µM in [16].

On to `S=C1N=C(Cl)/C(=C\c2ccccc2)N1`, for which the TGI in [1], in experiment [2], in experiment [3], in experiment [4], in experiment [5] and in experiment [6] was greater than 100 µM throughout. Further, the TGI in [7], in experiment [8], in experiment [9], in experiment [10], in experiment [11] and in [12] was greater than 100 µM each time. Besides, the TGI in experiment [13], in experiment [14], in experiment [15] and in experiment [16] was greater than 100 µM throughout.

`C=CCn1c(-c2ccc(-c3cs/c(=N\N=O)n3CC=C)cc2)cs/c1=N\N=O`: the TGI in experiment [1], in experiment [2], in experiment [3], in experiment [4], in [5] and in experiment [6] was greater than 100 µM throughout. In addition, the TGI in experiment [7] was greater than 100 µM; in experiment [8], greater than 100 µM; in [9], greater than 100 µM; in experiment [10], 53 µM; in experiment [11] it was greater than 100 µM; in [12] it was greater than 100 µM. Moreover, the TGI in [13] was 57.4 µM; in experiment [14], greater than 100 µM; in experiment [15], greater than 100 µM; in experiment [16] it was greater than 100 µM.

Take `COC(=O)c1ccc(NCc2cc(O)ccc2O)cc1`: the TGI in [1] was 15.1 µM; in experiment [2], 39.5 µM; in experiment [3], 24.5 µM; in experiment [4], 31.6 µM; in [5] it was 36.9 µM; in [6], 30.9 µM. Further, the TGI turned out to be 70.5 µM in experiment [7]; 29.6 µM in experiment [8]; 27 µM in [9]; 20.2 µM in [10]; 29.2 µM in experiment [11]; 3.4 µM in experiment [12]. Moreover, the TGI in experiment [13] came to 30.5 µM; in experiment [14], 34.8 µM; in [15], 29.1 µM; in experiment [16] it was 24.5 µM.
